In BindingDB's records for doi:10.1016/j.ejmech.2023.115347 (Johann Wolfgang Goethe University, 2023):
pIC50: −log10 of the molar value.

Biological target: Ribosomal protein S6 kinase alpha-1 (Homo sapiens) (UniProt Q15418)
Test: Inhibition of full length NanoLuc fused RSK1b (unknown origin) transfected in HEK293T cells using NanoBRET NanoGlo substrate incubated for 2 hrs in presence of tracer by NanoBRET assay

Chain of Ribosomal protein S6 kinase alpha-1 (Homo sapiens) (Q15418 whole entry, looked up, the tested form may be a part): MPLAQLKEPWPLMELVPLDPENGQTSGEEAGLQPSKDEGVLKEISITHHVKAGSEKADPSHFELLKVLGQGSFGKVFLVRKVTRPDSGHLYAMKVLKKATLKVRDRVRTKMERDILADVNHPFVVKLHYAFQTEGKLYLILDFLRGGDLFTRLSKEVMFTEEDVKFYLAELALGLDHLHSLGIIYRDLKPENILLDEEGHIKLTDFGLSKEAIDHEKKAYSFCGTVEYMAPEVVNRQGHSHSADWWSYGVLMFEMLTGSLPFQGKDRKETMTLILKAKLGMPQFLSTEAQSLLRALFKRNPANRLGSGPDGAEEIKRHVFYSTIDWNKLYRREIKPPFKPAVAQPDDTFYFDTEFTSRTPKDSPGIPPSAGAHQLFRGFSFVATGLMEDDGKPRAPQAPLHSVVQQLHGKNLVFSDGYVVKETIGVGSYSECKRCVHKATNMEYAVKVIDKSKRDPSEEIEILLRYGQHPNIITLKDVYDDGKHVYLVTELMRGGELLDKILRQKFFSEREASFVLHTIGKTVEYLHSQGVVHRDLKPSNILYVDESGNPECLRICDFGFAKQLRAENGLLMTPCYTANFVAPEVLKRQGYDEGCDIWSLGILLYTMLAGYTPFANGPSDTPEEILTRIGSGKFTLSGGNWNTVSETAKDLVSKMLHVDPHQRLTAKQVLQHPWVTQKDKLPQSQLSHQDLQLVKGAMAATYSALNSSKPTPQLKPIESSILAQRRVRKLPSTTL

pIC50: < 4.35
SMILES: CNc1ncc2cc(-c3cc(F)ccc3F)c(=O)n(CCCCN)c2n1
